The test system of data set [1] is T1, CTL2-GFP (C. trachomatis L2/434/Bu, GFP-expressing).
T1 construct: L2/434/Bu, GFP-expressing
Put plainly: microbe, parasite or virus in culture. More on the design: Intracellular C. trachomatis growth in HeLa cells, bulk GFP fluorescence relative to DMSO. The settings on record: Chlamydia trachomatis, HeLa, 28.5 h; bulk GFP, mean of 2; read-out: % of control remaining. How it is done: MICs were calculated as described above.

Data set [2] can be described thus: in vitro. Further details: Viability of infected HeLa host cells, resazurin conversion, bulk resorufin fluorescence relative to DMSO. The settings on record: human, hela cells; bulk resorufin, mean of 2.
In data set [3] the test system is T2, C. trachomatis L2/434/Bu expressing GFP (CTL2-GFP).
T2 construct: L2/434/Bu GFP intracellular growth in HeLa cells
Kind of data set: microbe, parasite or virus in culture. More on the design: C. trachomatis total inclusion area by high-content imaging, normalised to DMSO. The settings on record: Chlamydia trachomatis, HeLa, 28.5 h; total inclusion area; read-out: % of control remaining. The method, boiled down:
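After bulk GFP and resorufin reads, fixed cells were Hoechst-stained and imaged to count chlamydial inclusions and host nuclei. Total inclusion area and number tracked bacterial growth, and nuclei number tracked host viability. MICs were derived, and 36,785 drug-like molecules were screened this way.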

For the molecule `CN(C(=O)c1ccc(Cl)c(Cl)c1)[C@H]1CCC[C@H]1N1CCCC1` [CBK003411C], in data set [1], the activity at 1 µM stood at 32.2%, the activity at 5 µM is 0.223% and the activity at 10 µM was found to be 1.01%. In addition, in data set [2], the viability at 28.5 h, 1 µM is 112%; the viability at 28.5 h, 5 µM came to 111%; the viability at 28.5 h, 10 µM turned out to be 118%. In addition, in data set [3], the activity at 1 µM came to 52.8%, the activity at 5 µM was 1.24% and the activity at 10 µM was found to be 0.29%.

As to `c1c(C2CC2)[nH]c2nc(N3CCCC3)nc(N3CCCC3)c12` [CBK016707G], in data set [1], the activity at 1 µM was 3.94%, the activity at 5 µM is 11.1% and the activity at 10 µM amounted to 20.9%. Besides, in data set [2], the viability at 28.5 h, 1 µM stood at 99.1%; the viability at 28.5 h, 5 µM was found to be 96.9%; the viability at 28.5 h, 10 µM was found to be 86.9%. Besides, in data set [3], the activity at 1 µM was found to be 0.765%, the activity at 5 µM was determined as 0.748% and the activity at 10 µM stood at 3.52%.

Regarding `O=[N+]([O-])c1cc2c(cc1C(Nc1ccccn1)c1cc(Cl)c3cccnc3c1O)OCO2` (stereo not drawn) [CBK267795], in data set [1], the activity at 1 µM amounted to 109%, the activity at 5 µM amounted to 82.9% and the activity at 10 µM was 79.7%. In data set [2], the viability at 28.5 h, 1 µM is 95.1%; the viability at 28.5 h, 5 µM was 98.7%; the viability at 28.5 h, 10 µM was 93.2%. Besides, in data set [3], the activity at 1 µM was 94.3%, the activity at 5 µM came to 40.8% and the activity at 10 µM amounted to 25.9%.

For `O=C1Oc2nc3ccccc3cc2CN1C1CC1` [CBK282870], in data set [1], the activity at 1 µM turned out to be 0.777%, the activity at 5 µM amounted to 1.12% and the activity at 10 µM was determined as 3.61%. Further, in data set [2], the viability at 28.5 h, 1 µM turned out to be 112%; the viability at 28.5 h, 5 µM was 112%; the viability at 28.5 h, 10 µM is 98.4%. In data set [3], the activity at 1 µM is 0.264%, the activity at 5 µM was 0.496% and the activity at 10 µM came out at 0.404%.

Regarding `FC(F)(F)c1ccc(N2CCNCC2)nc1OCc1ccc2c(c1)OCCO2` [CBK003994A], in data set [1], the activity at 1 µM stood at 106%, the activity at 5 µM amounted to 40.3% and the activity at 10 µM is 22.5%. In data set [2], the viability at 28.5 h, 1 µM was determined as 100%; the viability at 28.5 h, 5 µM came out at 103%; the viability at 28.5 h, 10 µM was found to be 96.6%. For the same molecule, in data set [3], the activity at 1 µM was 82.5%, the activity at 5 µM came to 8.88% and the activity at 10 µM amounted to 7.41%.

Consider `CCc1nnc(NS(=O)(=O)c2ccc(NC(=S)Nc3ccc(F)cc3)cc2)s1` [CBK050037], for which, in data set [1], the activity at 1 µM came out at 72%, the activity at 5 µM worked out at 22.8% and the activity at 10 µM amounted to 13.7%. Further, in data set [2], the viability at 28.5 h, 1 µM worked out at 98.2%; the viability at 28.5 h, 5 µM was 89.3%; the viability at 28.5 h, 10 µM came out at 93.2%. For the same molecule, in data set [3], the activity at 1 µM came out at 98.5%, the activity at 5 µM turned out to be 26.5% and the activity at 10 µM stood at 17.6%.

As to `O=C(CCN1CCCCC1)Nc1ccc2c(=O)n3c(nc2c1)/C(=C/c1ccccc1)CC3` [CBK017786], in data set [1], the activity at 1 µM turned out to be 142%, the activity at 5 µM turned out to be 56.7% and the activity at 10 µM is 26.3%. Further, in data set [2], the viability at 28.5 h, 1 µM was 91.6%; the viability at 28.5 h, 5 µM was found to be 90.4%; the viability at 28.5 h, 10 µM worked out at 92.6%. Moreover, in data set [3], the activity at 1 µM was determined as 109%, the activity at 5 µM was 20.7% and the activity at 10 µM was 10.4%.

In the case of `Cc1cc(C)c2c(N)c(C(=O)Nc3ccc(Br)cc3)sc2n1` [CBK072019], in data set [1], the activity at 1 µM came to 107%, the activity at 5 µM was 95.1% and the activity at 10 µM came to 100%. Moreover, in data set [2], the viability at 28.5 h, 1 µM is 97.9%; the viability at 28.5 h, 5 µM was found to be 98.9%; the viability at 28.5 h, 10 µM was found to be 106%. In data set [3], the activity at 1 µM turned out to be 98.4%, the activity at 5 µM stood at 59.7% and the activity at 10 µM is 91%.

With `COc1ccc([C@@]23CC[C@@H](NC(=O)c4ccc(-c5ccccc5)cc4)CC2N(C)CC3)cc1OC` (stereo partly drawn) [CBK074973T], in data set [1], the activity at 1 µM was 113%, the activity at 5 µM was determined as 78.4% and the activity at 10 µM amounted to 39.7%. For the same molecule, in data set [2], the viability at 28.5 h, 1 µM amounted to 93.9%; the viability at 28.5 h, 5 µM was 94.3%; the viability at 28.5 h, 10 µM came to 87.1%. Besides, in data set [3], the activity at 1 µM worked out at 118%, the activity at 5 µM was 93.3% and the activity at 10 µM was 31.1%.

On to `CC(C)c1ccc(S(=O)(=O)Nc2cccc(SC(F)(F)F)c2)cc1` [CBK044581], for which, in data set [1], the activity at 1 µM amounted to 113%, the activity at 5 µM was found to be 76% and the activity at 10 µM amounted to 82.6%. For the same molecule, in data set [2], the viability at 28.5 h, 1 µM came out at 96.5%; the viability at 28.5 h, 5 µM turned out to be 95.7%; the viability at 28.5 h, 10 µM turned out to be 103%. Also, in data set [3], the activity at 1 µM was found to be 116%, the activity at 5 µM was determined as 69.4% and the activity at 10 µM was 80.6%.

For the molecule `Cc1noc(NS(=O)(=O)c2ccc(NC(=O)/C=C/c3ccc(C(C)C)cc3)cc2)c1C` [CBK265430], in data set [1], the activity at 1 µM turned out to be 66.5%, the activity at 5 µM stood at 26.3% and the activity at 10 µM amounted to 11.6%. Further, in data set [2], the viability at 28.5 h, 1 µM is 108%; the viability at 28.5 h, 5 µM is 102%; the viability at 28.5 h, 10 µM came to 106%. In data set [3], the activity at 1 µM was 69.9%, the activity at 5 µM came to 23.1% and the activity at 10 µM came to 22.2%.

For the molecule `Cc1ccc(OCc2ccccc2)c(C(CCN(C(C)C)C(C)C)c2ccccc2)c1` (stereo not drawn) [CBK017906], in data set [1], the activity at 1 µM came out at 148%, the activity at 5 µM turned out to be 124% and the activity at 10 µM was 61.5%. Also, in data set [2], the viability at 28.5 h, 1 µM turned out to be 91.6%; the viability at 28.5 h, 5 µM was found to be 92.3%; the viability at 28.5 h, 10 µM is 86%. In data set [3], the activity at 1 µM turned out to be 112%, the activity at 5 µM came to 73.2% and the activity at 10 µM is 22%.

Turning to `CCOc1ccc2nc(NC(=N)N)nc(C)c2c1` [CBK010384C], in data set [1], the activity at 1 µM is 121%, the activity at 5 µM is 24.6% and the activity at 10 µM turned out to be 4.24%. Moreover, in data set [2], the viability at 28.5 h, 1 µM was 90.4%; the viability at 28.5 h, 5 µM turned out to be 102%; the viability at 28.5 h, 10 µM was found to be 94.8%. For the same molecule, in data set [3], the activity at 1 µM turned out to be 87%, the activity at 5 µM came to 20.7% and the activity at 10 µM came to 1.75%.

On to `CC(=O)Nc1ccc(-c2cccc(COC3CCN(C(=O)c4ccc(OC(C)C)cc4)CC3)c2)cc1` [CBK149485], for which, in data set [1], the activity at 1 µM was 107%, the activity at 5 µM worked out at 30.6% and the activity at 10 µM turned out to be 6.64%. Moreover, in data set [2], the viability at 28.5 h, 1 µM worked out at 89.4%; the viability at 28.5 h, 5 µM was found to be 92.4%; the viability at 28.5 h, 10 µM stood at 93.9%. Further, in data set [3], the activity at 1 µM was found to be 97.4%, the activity at 5 µM worked out at 32.5% and the activity at 10 µM came to 7.93%.

For the molecule `Cc1noc(NS(=O)(=O)c2ccc(NC(=O)CCN3C(=O)c4ccccc4C3=O)cc2)c1C` [CBK264091], in data set [1], the activity at 1 µM was determined as 106%, the activity at 5 µM came out at 40.3% and the activity at 10 µM was determined as 28.9%. In data set [2], the viability at 28.5 h, 1 µM was found to be 92.8%; the viability at 28.5 h, 5 µM worked out at 92.8%; the viability at 28.5 h, 10 µM turned out to be 91.3%. In addition, in data set [3], the activity at 1 µM is 99.8%, the activity at 5 µM came out at 67.5% and the activity at 10 µM is 32.7%.

Regarding `CN(C)c1ccc(Nc2nc(NCCO)c3ccccc3n2)cc1` [CBK268392C], in data set [1], the activity at 1 µM was found to be 130%, the activity at 5 µM was determined as 4.94% and the activity at 10 µM was 6.78%. Besides, in data set [2], the viability at 28.5 h, 1 µM came to 95.3%; the viability at 28.5 h, 5 µM worked out at 103%; the viability at 28.5 h, 10 µM worked out at 100%. In data set [3], the activity at 1 µM came to 69.7%, the activity at 5 µM amounted to 4.24% and the activity at 10 µM was 0.899%.

As to `CN(C)CCNc1nc(-c2ccc(Cl)cc2)nc2ccccc12` [CBK263942], in data set [1], the activity at 1 µM worked out at 111%, the activity at 5 µM was found to be 85.1% and the activity at 10 µM worked out at 47.9%. In data set [2], the viability at 28.5 h, 1 µM stood at 94.8%; the viability at 28.5 h, 5 µM was 97%; the viability at 28.5 h, 10 µM worked out at 94.4%. Besides, in data set [3], the activity at 1 µM is 64.3%, the activity at 5 µM was determined as 38.6% and the activity at 10 µM came out at 5.67%.

Consider `Cc1cc(NS(=O)(=O)c2ccc(Nc3nc(-c4cccs4)cs3)cc2)no1` [CBK262504], for which, in data set [1], the activity at 1 µM stood at 96.7%, the activity at 5 µM was 25.1% and the activity at 10 µM was found to be 15.9%. In addition, in data set [2], the viability at 28.5 h, 1 µM came out at 86.5%; the viability at 28.5 h, 5 µM was 92.2%; the viability at 28.5 h, 10 µM is 88.4%. Moreover, in data set [3], the activity at 1 µM is 112%, the activity at 5 µM was determined as 45.8% and the activity at 10 µM worked out at 19.5%.

Take `CC(=O)NC[C@H]1CN(c2ccc3c(c2)CCN(C(=O)Oc2ccccc2)CC3)C(=O)O1` [CBK018498]: in data set [1], the activity at 1 µM came to 125%, the activity at 5 µM worked out at 13.7% and the activity at 10 µM amounted to 1.02%. Also, in data set [2], the viability at 28.5 h, 1 µM stood at 98.7%; the viability at 28.5 h, 5 µM worked out at 94.2%; the viability at 28.5 h, 10 µM stood at 97.3%. Moreover, in data set [3], the activity at 1 µM was 72.8%, the activity at 5 µM is 12.5% and the activity at 10 µM was determined as 3.33%.

Usually viability stands for a read-out of living cells in per cent, often relative to untreated cells.

Source of the values: PMC12040169 (PLOS Biology, 2025).
